Data set [1] has as its system T47D. The experiment in a line: Cytotoxicity against human T47D cells assessed as reduction in cell viability after 48 hrs by MTT assay. The class given is functional. (Tetrazolium assays rely on reduction of a dye to a coloured formazan, in cell work by metabolically active cells.)
Data set [2] deals with LNCaP. The experiment in a line: Cytotoxicity against human LNCAP cells assessed as reduction in cell viability after 48 hrs by MTT assay. The class given is functional.
Data set [3] relates to DU-145. The experiment in a line: Cytotoxicity against human DU145 cells assessed as reduction in cell viability after 48 hrs by MTT assay. The class given is functional. As to conditions: DU-145, 48 h.
Data set [4] in a line: Cytotoxicity against human PC3 cells assessed as reduction in cell viability after 48 hrs by MTT assay. As to conditions: PC-3, 48 h. It counts as functional.
Data set [5] relates to MDA-MB-453. Description: Cytotoxicity against human MDA-MB-453 cells assessed as reduction in cell viability after 48 hrs by MTT assay. It counts as functional. Particulars: MDA-MB-453, 48 h.
Data set [6] deals with MCF7. Description: Cytotoxicity against human MCF7 cells assessed as reduction in cell viability after 48 hrs by MTT assay. It counts as functional. Particulars: MCF7, 48 h.
Data set [7] relates to LNCaP. The experiment in a line: Growth inhibition of human LNCAP cells at 0.5 to 20 uM after 4 days by […] assay.
Data set [8] has as its system LNCaP. Description: Selectivity index, ratio of GI50 for human DU145 cells to GI50 for human LNCAP cells. The class given is functional.
The subject of data set [9] is T47D. The experiment in a line: Growth inhibition of human T47D cells at 0.5 to 20 uM after 4 days by MTT assay. It counts as functional, cell-based.
For data set [10], the system named is LNCaP. Description: Selectivity index, ratio of GI50 for human PC3 cells to GI50 for human LNCAP cells. The class given is functional.
In data set [11] the test system is MCF7. The experiment in a line: Growth inhibition of human MCF7 cells at 0.5 to 20 uM after 4 days by MTT assay. The class given is functional, cell-based.
Data set [12] relates to MDA-MB-453. The experiment in a line: Growth inhibition of human MDA-MB-453 cells at 0.5 to 20 uM after 4 days by MTT assay. The class given is functional, cell-based.
For data set [13], the system named is MCF7. Description: Growth inhibition of human MCF7 cells. The class given is functional.
Data set [14] can be described thus: Growth inhibition of human PC3 cells. It counts as functional. As to conditions: PC-3.
A short description of data set [15]: Systemic bioavailability in rat. It counts as ADME, organism-based. Particulars: in vivo.
A short description of data set [16]: Protein binding in plasma (unknown origin). The class given is ADME, cell-free. As to conditions: read-out: PPB (converted).
In data set [17] the test system is T47D. Description: Growth inhibition of human T47D cells. It counts as functional.
The test system of data set [18] is MDA-MB-453. Description: Growth inhibition of human MDA-MB-453 cells. It counts as functional.
The next data set is described as follows: Toxicity in dog. As to conditions: in vivo.
Data set [19] deals with DU-145. The experiment in a line: Growth inhibition of human DU145 cells. It counts as functional.

Data on twelve molecules can be found in ChEMBL document CHEMBL3397006, “Synthesis and evaluation of the diarylthiourea analogs as novel anti-cancer agents” (Bioorg Med Chem Lett, 2015).

Activity calls are given as the source filed them. The rule behind the calls is not given here.

One may read the GI50 as the concentration that inhibits growth by half. Regarding `CCn1c2ccccc2c2cc(NC(=S)Nc3ccc([N+](=O)[O-])cc3)ccc21`, the GI50 with T47D [1] amounted to 9.44 µM; with LNCaP [2], 5.86 µM; with DU-145 [3], 5.87 µM; in data set [4], 19.6 µM; in the data set with MDA-MB-453 [5], 6.88 µM; in the data set with MCF7 [6], 12.8 µM.

As to `Cc1ccc(NC(=S)Nc2ccc([N+](=O)[O-])cc2)cc1C`, the GI50 in the data set on T47D [1] came out at 8.14 µM; in the data set on LNCaP [2] it was 10.6 µM; in the data set with DU-145 [3], 35.1 µM; in data set [4], 26.8 µM; in the data set with MDA-MB-453 [5], 13.5 µM; with MCF7 [6], 17 µM.

As for `O=[N+]([O-])c1ccc(NC(=S)Nc2ccc3sccc3c2)cc1`, the GI50 was 15.3 µM with T47D [1]; 23.5 µM in the data set with LNCaP [2]; greater than 50 µM with DU-145 [3]; greater than 50 µM in [4]; greater than 50 µM in the data set on MDA-MB-453 [5]; greater than 50 µM with MCF7 [6].

With `Cc1cc(=O)oc2cc(NC(=S)Nc3ccc([N+](=O)[O-])cc3)ccc12`, the GI50 in the data set with T47D [1] was greater than 50 µM; in the data set on LNCaP [2], greater than 50 µM; in the data set on DU-145 [3] it was greater than 50 µM; in [4] it was greater than 50 µM; in the data set on MDA-MB-453 [5], greater than 50 µM; in the data set with MCF7 [6], 9.89 µM.

As for `O=[N+]([O-])c1ccc(NC(=S)Nc2cc3c4ccccc4ccc3c3ccccc23)cc1`, the “growth inhibition (GI)” value with LNCaP [7], in the data set with T47D [9], in the data set with MCF7 [11] and in the data set on MDA-MB-453 [12] was “Active” throughout. The GI50 came to 2.53 µM in the data set with T47D [1]; 3.54 µM with LNCaP [2]; 21.8 µM in the data set on DU-145 [3]; 20 µM in [4]; 4.77 µM in the data set with MDA-MB-453 [5]; 3.16 µM in the data set on MCF7 [6]. Besides, the “Selectivity Index” value in the data set with LNCaP [8] and with LNCaP [10] was 6 throughout.

With `Cc1cc2cc(NC(=S)Nc3ccc([N+](=O)[O-])cc3)ccc2[nH]1`, the GI50 in the data set on T47D [1] is 21.6 µM; with LNCaP [2] it was 40.5 µM; in the data set with DU-145 [3] it was greater than 50 µM; in data set [4], greater than 50 µM; in the data set with MDA-MB-453 [5] it was greater than 50 µM; in the data set on MCF7 [6], greater than 50 µM.

As to `CC(NC(=S)Nc1ccc([N+](=O)[O-])cc1)c1cccc2ccccc12` (stereo not drawn), the GI50 amounted to 2.94 µM with T47D [1]; 6.05 µM with LNCaP [2]; 13.7 µM with DU-145 [3]; 13.9 µM in data set [4]; 6.27 µM in the data set with MDA-MB-453 [5]; 6.21 µM with MCF7 [6]. Also, the “Selectivity Index” value in the data set on LNCaP [8] and in the data set on LNCaP [10] was 2 each time.

As a reminder, the bioavailability is dose-corrected exposure relative to a reference, in per cent. Low readings indicate little systemic uptake, high ones much systemic uptake. Usually NOAEL stands for the highest tested level that showed no adverse finding. With `CC1(C)CC(C)(C)c2cc(NC(=S)Nc3ccc([N+](=O)[O-])cc3)ccc2S1` [SHETA-2], the 50% growth inhibitory concentration (GI50) in the data set on MCF7 [13] is 4.5 µM; in [14], 5 µM; with T47D [17] it was 4.8 µM; with T47D [1], 3.99 µM; in the data set on MDA-MB-453 [18], 5 µM; with LNCaP [2], 2.25 µM. Moreover, the GI50 in the data set with DU-145 [3] was 3.47 µM; in data set [4] it was 4.8 µM; in the data set on MDA-MB-453 [5], 3.27 µM; in the data set on MCF7 [6], 4.13 µM; in the data set on DU-145 [19] it was 4.9 µM. Moreover, in data set [15], the bioavailability was less than 1%. Moreover, the fraction unbound in [16] is 0.007. In “Toxicity in dog”, the NOAEL was greater than 1500 mg/kg.

`CC1=C(/C=C/C(C)=C/C=C/C(C)=C/C(=O)O)C(C)(C)CCC1` [TRETINOIN]: the GI50 worked out at 0.82 µM in the data set on T47D [1]; 10.3 µM in the data set with LNCaP [2]; 11.6 µM in the data set with DU-145 [3]; 12.6 µM in [4]; 9.51 µM in the data set with MDA-MB-453 [5]; 12.4 µM in the data set with MCF7 [6].

With `O=c1oc2ccc(NC(=S)Nc3ccc([N+](=O)[O-])cc3)cc2c2ccccc12`, the GI50 came to 8.68 µM in the data set on T47D [1]; 12.8 µM in the data set with LNCaP [2]; 24.1 µM with DU-145 [3]; 22.6 µM in data set [4]; 27.6 µM in the data set on MDA-MB-453 [5]; 13.1 µM in the data set with MCF7 [6].

Regarding `O=[N+]([O-])c1ccc(NC(=S)Nc2cc3ccccc3c3ccccc23)cc1`, the GI50 in the data set on T47D [1] is 11.6 µM; with LNCaP [2], 7.29 µM; in the data set on DU-145 [3], 6.11 µM; in [4], 19.3 µM; with MDA-MB-453 [5], 14.5 µM; in the data set with MCF7 [6] it was 13.3 µM.

Take `O=[N+]([O-])c1ccc(NC(=S)Nc2ccc3c(c2)Cc2cc(Br)ccc2-3)cc1`: the GI50 was 3.96 µM in the data set with T47D [1]; 11.3 µM with LNCaP [2]; 17.5 µM in the data set with DU-145 [3]; 16.5 µM in [4]; 6.2 µM with MDA-MB-453 [5]; 7.81 µM in the data set on MCF7 [6].
